Results on 18 compounds are retold here after patent US20220220106A1, “QUINOLINE COMPOUNDS AND PHARMACEUTICAL COMPOSITIONS AND USES THEREOF” (Academy of Military Medical Sciences, priority 2019, published 2022).

For one series, the system named is RD cells. Briefly: Detection of cytotoxicity in RD cells (CellTiter-Glo). It is filed as cell-based. The settings on record: 4 days, CellTiter-Glo, median toxic dose. The method, then: Detection of Cytotoxicity:
(1) The compound to be tested was diluted to a concentration of 400 μM with the cell maintenance solution, and 3-fold gradient dilution was carried out to obtain 10 concentrations in total.
(2) The diluted compound was added to a 96-well plate with white wall and transparent bottom, with 100 μL per well. An equal volume of the cell maintenance solution was added to the cell control group.
(3) RD cells were inoculated into the above 96-well plate at a concentration of 1*10^5/mL, with 100 μL per well, to reach a final volume of 200 μL per well, and the final concentration of drug was 0.5 times the pretreatment concentration.
(4) The RD cells were cultured at 37° C. for 4 days for testing.
(5) The Buffer of CellTiter-Glo® luminescent cell viability assay reagent was mixed with the substrate in the dark to prepare a working solution.
(6) The culture medium in the plate was discarded, the plate was dried by patting, 100 μL of the detection reagent was added to each well, and the 96-well plate was shaken on an orbital shaker for 4 minutes to induce cell lysis. After keeping in the dark and subjecting to signal stabilization for 15 minutes, the chemiluminescence unit was detected, and the plate reading program was performed according to the CellTiter-Glo preset program.
(§1) The formula for calculating the inhibition rates of drug at different dilution degrees was as follows: inhibition rate (%)=(average value of cell control group−value of experimental group)/(average value of cell control group−minimum value of experimental group)*100
(§2) The inhibition rate-concentration curve was fitted to S-curve by using origin8.0 software, and the IC50 value of the compound to be tested was calculated. The same method was used to calculate the TD50 value, and the selection index SI=TD50/IC50 was calculated according to the half maximal inhibitory concentration IC50 and the median toxic dose TD50.
On the technique in general: Cellular ATP, detected with luciferase, serves as a proxy for viable cell number.

Series [1] deals with Enterovirus 71 (EV71) H strain. The experiment in a line: In vitro anti-EV71 activity (antiviral activity in RD cells, CellTiter-Glo). The class given is cell-based. As to conditions: for IC50: Enterovirus A, 96 h, EV71 H strain, RD cells, 4 days, CellTiter-Glo, read-out: IC50; for in vitro anti-EV71 activity, in words: EV71, RD cells. The method, then:
According to the mass and molecular weight of the compound to be tested, the compound to be tested was dissolved to 100 mM (mmol/L) with DMSO.
Detection of Antiviral Activity:
(1) First, the compound to be tested was diluted to 800 μM with cell maintenance solution (DMEM+2% FBS, Gibco, catalog numbers: 11995-065, 1600-044), and three-fold gradient dilution was performed to prepare 10 concentrations in total. The diluted compound was added to a 96-well plate with white wall and transparent bottom, 50 μl per well. To both the cell control group and the virus control group, an equal volume of the cell maintenance solution was added.
(2) EV71 virus (purchased from ATCC) was taken out from the −80° C. refrigerator and equilibrated to room temperature.
(3) The virus seed was diluted with a virus growth solution (DMEM+2% FBS, Gibco, catalog numbers: 11995-065, 1600-044) to 100TCID50, the diluted virus seed was added to the 96-well plate of (1), with […] per well. The same volume of the virus growth solution was added to the cell control group.
(4) RD cells (purchased from ATCC) were inoculated at a concentration of 1*10^5/mL into the 96-well plate of (1), with 100 μL per well, to reach a final volume of 200 μL per well. The final concentration of drug was 0.25 times the initial concentration.
(5) RD cells were cultured at 37° C. for 4 days for testing.
(6) The Buffer of CellTiter-Glo® luminescent cell viability assay reagent (Promega) was mixed with the substrate in the dark to prepare a working solution.
(7) The culture medium in the plate was discarded, the plate was dried by patting, 100 μL of the detection reagent was added to each well, and the 96-well plate was shaken on an orbital shaker for 4 minutes to induce cell lysis. After keeping in the dark and subjecting to signal stabilization for 15 minutes, the chemiluminescence unit was detected by using MD5 microplate reader (Molecular Devices), and the plate reading program was performed according to the CellTiter-Glo preset program.
The inhibition rate-concentration curve was fitted to S-curve by using origin8.0 software to calculate the IC50 value of the compound to be tested.
as §1, §2

The term melting point denotes the temperature of the solid-liquid transition. In general, IC50 refers to the concentration at which inhibition is half-maximal. `CC(C)(C)c1ccc(Nc2ccc3ncc4ccc(=O)n(-c5cccc(C(F)(F)F)c5)c4c3c2)cc1` [HTL-6-18, 9-(4-tert-butylphenyl)imino-2-oxo-1-[3-(trifluoromethyl)phenyl]-1,2-dihydrobenzo[h][1,6]naphthyridine] had a melting point of 141 to 142 °C. The compound further came in with a TD50 in the series on RD cells of 7.04 ± 0.68 µM. In addition, in series [1], the IC50 was more than 200 µM.
`Cc1ccc(Nc2ccc3ncc4ccc(=O)n(-c5cccc(C(F)(F)F)c5)c4c3c2)cn1` [HTL-6-19, 9-[3-(6-methylpyridyl)]imino-2-oxo-1-[3-(trifluoromethyl)phenyl]-1,2-dihydrobenzo[h][1,6]naphthyridine] showed a melting point of 234 to 236 °C. Further, the TD50 in the series on RD cells was 22.62 ± 2.15 µM. Moreover, in series [1], the IC50 was more than 200 µM.
As to `O=c1ccc2cnc3ccc(Nc4ccc(F)nc4)cc3c2n1-c1cccc(C(F)(F)F)c1` [HTL-6-20, 9-[3-(6-fluoropyridyl)]imino-2-oxo-1-[3-(trifluoromethyl)phenyl]-1,2-dihydrobenzo[h][1,6]naphthyridine], the melting point is 232 to 233 °C. This compound also displayed a TD50 in the series with RD cells of 59.31 ± 3.98 µM. The half-maximal inhibitory concentration (IC50) in series [1] was more than 200 µM.
In turn, `O=c1ccc2cnc3ccc(Nc4ccc(Cl)nc4)cc3c2n1-c1cccc(C(F)(F)F)c1` [HTL-6-21, 9-[3-(6-chloropyridyl)]imino-2-oxo-1-[3-(trifluoromethyl)phenyl]-1,2-dihydrobenzo[h][1,6]naphthyridine] registered a melting point of 137 to 138 °C. Besides, the TD50 with RD cells came out at 20.75 ± 2.11 µM. Besides, the IC50 in series [1] is more than 200 µM.
Turning to `N#Cc1ccc(Nc2ccc3ncc4ccc(=O)n(-c5cccc(C(F)(F)F)c5)c4c3c2)cc1` [HTL-6-22, 9-(4-cyanophenyl)imino-2-oxo-1-[3-(trifluoromethyl)phenyl]-1,2-dihydrobenzo[h][1,6]naphthyridine], the melting point is 259 to 260 °C. The compound further returned a TD50 in the series on RD cells of 6.95 ± 0.86 µM. Also, the IC50 in series [1] was more than 200 µM.
For `O=c1ccc2cnc3ccc(Nc4ccc(F)cc4)cc3c2n1-c1cccc(C(F)(F)F)c1` [HTL-6-23, 9-(4-fluorophenyl)imino-2-oxo-1-[3-(trifluoromethyl)phenyl]-1,2-dihydrobenzo[h][1,6]naphthyridine], in that order: 176 to 179 °C, 7.22 ± 0.47 µM and more than 200 µM.
`Cc1cc(Nc2ccc3ncc4ccc(=O)n(-c5cccc(C(F)(F)F)c5)c4c3c2)ccc1F` [HTL-6-24, 9-[(4-fluoro-3-methyl)phenyl]imino-2-oxo-1-[3-(trifluoromethyl)phenyl]-1,2-dihydrobenzo[h][1,6]naphthyridine] yielded a melting point of 210 to 211 °C. In the series with RD cells, this compound yielded a TD50 of 7.2 ± 0.33 µM. Besides, the IC50 in series [1] was more than 200 µM.
In the case of `O=c1ccc2cnc3ccc(Nc4ccc(Cl)cc4)cc3c2n1-c1cccc(C(F)(F)F)c1` [HTL-6-25, 9-(4-chlorophenyl)imino-2-oxo-1-[3-(trifluoromethyl)phenyl]-1,2-dihydrobenzo[h][1,6]naphthyridine], the melting point fell in the range of 212 to 213 °C. In the series on RD cells, this compound gave a TD50 of 4.56 ± 0.26 µM. The IC50 in series [1] is more than 200 µM.
With `COc1ccc(Nc2ccc3ncc4ccc(=O)n(-c5cccc(C(F)(F)F)c5)c4c3c2)cc1` [HTL-6-26, 9-(4-methoxyphenyl)imino-2-oxo-1-[3-(trifluoromethyl)phenyl]-1,2-dihydrobenzo[h][1,6]naphthyridine], the melting point was in the range of 138 to 140 °C. The TD50 with RD cells was more than 200 µM. Also, in series [1], the IC50 is more than 200 µM.
For the compound `CC(=O)Nc1ccc(Nc2ccc3ncc4ccc(=O)n(-c5cccc(C(F)(F)F)c5)c4c3c2)cc1` [HTL-6-27, 9-(4-acetylaminophenyl)imino-2-oxo-1-[3-(trifluoromethyl)phenyl]-1,2-dihydrobenzo[h][1,6]naphthyridine], the melting point was in the range of 175 to 177 °C. The compound also showed a TD50 in the series on RD cells of 10.65 ± 0.57 µM. Also, in series [1], the “in vitro anti-EV71 activity, in words” value is given as “moderate activity” and the half-maximal inhibitory concentration (IC50) stood at 7.14 ± 3.21 µM.
In turn, `Nc1cncc(Nc2ccc3ncc4ccc(=O)n(-c5cccc(C(F)(F)F)c5)c4c3c2)n1` [HTL-6-28, 9-[2-(6-aminopyrazinyl)]imino-2-oxo-1-[3-(trifluoromethyl)phenyl]-1,2-dihydrobenzo[h][1,6]naphthyridine] displayed a melting point of 192 to 194 °C. In the series on RD cells, the TD50 stood at 8.67 ± 0.97 µM. Further, in series [1], the “in vitro anti-EV71 activity, in words” value was “moderate activity” and the IC50 amounted to 3.7 ± 0.03 µM.
Take `Nc1cncc(Nc2ccc3ncc4ccc(=O)n(-c5cccc(C(F)(F)F)c5)c4c3c2)c1` [HTL-6-29, 9-[3-(5-aminopyridyl)]imino-2-oxo-1-[3-(trifluoromethyl)phenyl]-1,2-dihydrobenzo[h][1,6]naphthyridine]: the melting point lay in the range of 156 to 158 °C. Further, the TD50 in the series with RD cells turned out to be 28.65 ± 1.67 µM. Further, in series [1], the “in vitro anti-EV71 activity, in words” value is reported as “moderate activity” and the IC50 was 1.75 ± 0.41 µM.
`N#CC/C=C/c1ccc2ncc3oc(=O)n(-c4cccc(C(F)(F)F)c4)c3c2c1` [HTL-6-31, (E)-8-(3-cyano-propenyl)-1-[3-(trifluoromethyl)phenyl]oxazolo[5,4-c]quinolin-2(1H)-one] had a melting point of 177 to 179 °C. Further, in the series on RD cells, the TD50 was found to be 9.20 ± 2.34 µM. Further, the IC50 in series [1] is more than 200 µM.
Take `N#C/C=C/c1ccc2ncc3oc(=O)n(-c4cccc(C(F)(F)F)c4)c3c2c1` [HTL-6-32, (E)-8-(2-cyano-vinyl)-1-[3-(trifluoromethyl)phenyl]oxazolo[5,4-c]quinolin-2(1H)-one]: the melting point is 235 to 237 °C. The TD50 in the series with RD cells is more than 200 µM. Also, the IC50 in series [1] is more than 200 µM.
Turning to `COC(=O)/C=C/c1ccc2ncc3oc(=O)n(-c4cccc(C(F)(F)F)c4)c3c2c1` [HTL-6-33, (E)-8-(2-methoxycarbonyl-vinyl)-1-[3-(trifluoromethyl)phenyl]oxazolo[5,4-c]quinolin-2(1H)-one], the melting point was 243 to 245 °C. In addition, the TD50 with RD cells was 71.99 ± 0.78 µM. In series [1], the IC50 was more than 200 µM.
For `CC(C)(C)OC(=O)/C=C/c1ccc2ncc3oc(=O)n(-c4cccc(C(F)(F)F)c4)c3c2c1` [HTL-6-35, (E)-8-(2-tert-butoxycarbonyl-vinyl)-1-[3-(trifluoromethyl)phenyl]oxazolo[5,4-c]quinolin-2(1H)-one], in that order: 186 to 187 °C, 76.02 ± 11.52 µM and more than 200 µM.
In the case of `CCOC(=O)CC/C=C/c1ccc2ncc3oc(=O)n(-c4cccc(C(F)(F)F)c4)c3c2c1` [HTL-6-38, (E)-8-(4-ethoxycarbonyl-but-1-enyl)-1-[3-(trifluoromethyl)phenyl]oxazolo [5,4-c]quinolin-2(1H)-one], the melting point was in the range of 162 to 164 °C. The same compound showed a TD50 in the series on RD cells of 22.74 ± 0.01 µM. Besides, the IC50 in series [1] is more than 200 µM.
For the compound `O=C(Nc1ccc(-c2ccc3ncc4oc(=O)n(-c5cccc(C(F)(F)F)c5)c4c3c2)cn1)OCc1ccccc1` [HTL-7-23, 8-[3-(6-benzyloxyamido)pyridyl]-1-[3-(trifluoromethyl)phenyl]oxazolo[5,4-c]quinolin-2(1H)-one], the melting point lay in the range of 284 to 286 °C. The TD50 in the series with RD cells is more than 200 µM. Moreover, in series [1], the IC50 is more than 200 µM.
